# From paper PMC4183613 (Journal of the American Chemical Society, 2014)
# Tests used:
# [1] = target: polycomb repressor complex 2 (PRC2) (human (purified from HeLa cells)) (UniProt Q15910)
# PRC2 [2] = target: T1, PRC2 (Homo sapiens, UniProt Q15910); test: PRC2 inhibition, scintillation methyltransferase assay with H3; type: biochemical; conditions: peptide 50 μM; substrate peptide 20 μM; 3H-SAM scintillation assay
# PRC2 [3] = target: T1, PRC2; type: biochemical; conditions: mononucleosome substrates; Figure 2C
# [4] = target: polycomb repressor complex 2 (PRC2) (human (purified from HeLa cells)) (UniProt Q15910); remark: listed apart in the source
# [5] = target: polycomb repressor complex 2 (PRC2) (human (purified from HeLa cells)) (UniProt Q15910); test: methyltransferase inhibition kinetics
# T1 sequence (Q15910 whole entry): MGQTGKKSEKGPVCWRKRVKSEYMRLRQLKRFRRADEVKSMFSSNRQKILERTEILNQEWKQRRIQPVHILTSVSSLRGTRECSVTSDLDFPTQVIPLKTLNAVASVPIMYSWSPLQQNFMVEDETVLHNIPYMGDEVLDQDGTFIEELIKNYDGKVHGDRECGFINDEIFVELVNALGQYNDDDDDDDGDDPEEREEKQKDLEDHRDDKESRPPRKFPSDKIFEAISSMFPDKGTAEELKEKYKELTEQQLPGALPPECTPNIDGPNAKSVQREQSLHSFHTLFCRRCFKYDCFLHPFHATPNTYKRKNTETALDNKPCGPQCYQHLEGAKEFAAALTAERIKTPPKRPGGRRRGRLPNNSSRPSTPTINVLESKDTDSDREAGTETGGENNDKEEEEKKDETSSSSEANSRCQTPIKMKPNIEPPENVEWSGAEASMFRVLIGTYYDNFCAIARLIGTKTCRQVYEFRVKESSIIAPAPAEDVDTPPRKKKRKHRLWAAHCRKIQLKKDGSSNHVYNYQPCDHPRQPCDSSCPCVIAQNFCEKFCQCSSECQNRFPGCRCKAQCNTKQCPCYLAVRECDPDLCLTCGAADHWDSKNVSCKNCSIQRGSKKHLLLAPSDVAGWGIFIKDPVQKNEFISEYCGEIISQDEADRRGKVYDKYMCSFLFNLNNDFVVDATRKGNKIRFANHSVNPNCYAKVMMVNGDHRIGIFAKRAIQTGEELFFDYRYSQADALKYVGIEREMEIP
# T1 sequence (O75530 whole entry partner): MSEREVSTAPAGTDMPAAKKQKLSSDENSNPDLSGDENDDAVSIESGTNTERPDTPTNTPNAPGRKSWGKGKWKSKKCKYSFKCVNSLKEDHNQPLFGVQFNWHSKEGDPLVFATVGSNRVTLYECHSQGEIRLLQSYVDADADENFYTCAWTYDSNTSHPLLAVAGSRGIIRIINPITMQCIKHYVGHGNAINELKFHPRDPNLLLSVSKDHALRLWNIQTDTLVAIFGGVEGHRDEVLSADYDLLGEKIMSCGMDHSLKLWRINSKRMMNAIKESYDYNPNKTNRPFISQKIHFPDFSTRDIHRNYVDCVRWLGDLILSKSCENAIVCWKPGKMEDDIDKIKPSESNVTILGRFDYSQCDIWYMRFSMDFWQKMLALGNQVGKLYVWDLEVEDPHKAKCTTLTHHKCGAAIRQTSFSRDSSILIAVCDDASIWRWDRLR
# T1 sequence (Q15022 whole entry partner): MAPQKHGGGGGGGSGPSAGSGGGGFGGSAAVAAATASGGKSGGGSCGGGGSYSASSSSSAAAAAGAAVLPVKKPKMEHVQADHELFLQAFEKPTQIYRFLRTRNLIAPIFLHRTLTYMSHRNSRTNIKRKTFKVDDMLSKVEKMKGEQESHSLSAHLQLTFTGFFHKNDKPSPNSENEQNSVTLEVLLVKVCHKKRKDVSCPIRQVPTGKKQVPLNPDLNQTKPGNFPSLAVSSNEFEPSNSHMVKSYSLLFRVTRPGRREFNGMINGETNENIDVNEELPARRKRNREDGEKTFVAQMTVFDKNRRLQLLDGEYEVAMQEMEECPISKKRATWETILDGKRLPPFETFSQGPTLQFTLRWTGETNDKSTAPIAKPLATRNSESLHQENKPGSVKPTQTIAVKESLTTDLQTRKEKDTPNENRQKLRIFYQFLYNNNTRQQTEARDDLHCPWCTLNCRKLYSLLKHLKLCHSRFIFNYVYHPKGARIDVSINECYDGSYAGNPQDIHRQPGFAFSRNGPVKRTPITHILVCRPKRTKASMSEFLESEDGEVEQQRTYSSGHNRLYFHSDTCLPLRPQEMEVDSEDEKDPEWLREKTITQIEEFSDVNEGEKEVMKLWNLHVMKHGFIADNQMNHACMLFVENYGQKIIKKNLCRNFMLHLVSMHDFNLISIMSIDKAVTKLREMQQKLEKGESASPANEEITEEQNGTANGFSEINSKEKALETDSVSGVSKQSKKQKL
# T1 sequence (Q09028 whole entry partner): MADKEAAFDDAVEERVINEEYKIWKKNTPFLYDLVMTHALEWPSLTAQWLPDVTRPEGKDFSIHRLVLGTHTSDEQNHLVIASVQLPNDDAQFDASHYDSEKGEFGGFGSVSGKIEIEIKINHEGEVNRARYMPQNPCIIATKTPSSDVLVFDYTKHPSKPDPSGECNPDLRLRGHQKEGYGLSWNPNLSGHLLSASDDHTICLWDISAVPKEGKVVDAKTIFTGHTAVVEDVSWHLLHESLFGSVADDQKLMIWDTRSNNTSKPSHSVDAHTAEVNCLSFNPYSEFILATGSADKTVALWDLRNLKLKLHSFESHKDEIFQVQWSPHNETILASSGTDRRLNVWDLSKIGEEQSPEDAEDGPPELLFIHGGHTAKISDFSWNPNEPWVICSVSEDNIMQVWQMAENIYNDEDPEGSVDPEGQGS
Substance,"inhibition of PRC2 methyltransferase activity, in words (PRC2 [2])",also measured
H3.3(23-34) peptide 18 (trifluoro-methionine at residue 27),–,IC50 of inhibition of PRC2 methyltransferase activity (Figure S2A) [1]: 11000 nM
KAARXSAPSTGG [compound 16],modest loss of inhibition,–
KAARXSAPSTGG [compound 4],did not provide measurable inhibition,–
H3 1-10-GGG-H3 21-37 [compound 39],–,"inhibition by bitopic constructs, in words (PRC2 [3]): outperformed longer linkers"
H3K27M mutant mononucleosome (from UniProt P84243 1-136) (complex),–,IC50 of inhibition of PRC2 methylation of mononucleosome substrates [4]: 2.6 nM; Ki [5]: 2.1 nM
KAARXSAPSTGG [compound 8],did not provide measurable inhibition,–

# Now from value to substance, other results behind:
"inhibition of PRC2 methyltransferase activity, in words (PRC2 [2])",Substance,also measured
did not provide measurable inhibition,KAARXSAPSTGG [compound 7],–
modest loss in activity,KAARXSAPSTGG [compound 5],–
abolished inhibition,KAARXSAPSTGG [compound 17],–
complete inhibition,KAARXSAPSTGG [compound 3],–
